Data set [1] has as its system Plasmodium berghei, ANKA strain. The experiment in a line: Antimalarial efficacy of a single oral dose of trioxane combined with mefloquine hydrochloride in Plasmodium berghei-infected mice (Table 1). Type of data set: in vivo. The method, then: (§1) Each trioxane 2b, 3, 4a, and 4b (0.90 mg) was dissolved in 0.11 mL of 7:3 Tween 80:ethanol and then diluted with 1.10 mL of water for oral administration to 5-week old C57BL/6J male mice (from the Jackson Laboratory) weighing about 22 g that were infected intraperitoneally on day 0 with the Plasmodium berghei, ANKA strain (2×10^7 parasitized erythrocytes). Chen et al., 2006.
(§2) Each of five mice in a group was treated orally 24 h post-infection with a single dose of 0.20 mL (0.20 mL/1.21 mL×0.9 mg=0.15 mg) of diluted compound solution, corresponding to a dose of 6.8 mg/kg, combined with 20 mg/kg of mefloquine hydrochloride. Determining blood parasitemia levels, as well as monitoring the duration of animal survival compared to survival time of animals receiving no drug, are both widely accepted as measures of a drug's efficacy in antimalarial drug development. […] Animals receiving no drug died on days 6-7 post-infection. A widely accepted yardstick of cure (i.e., 100% efficacy) is survival of animals to day 30 post-infection, with no detectable malaria parasites in the animal's blood at that time.
Average survival results are summarized in Table 1, including single oral doses of 13 mg/kg of trioxane combined with 13 mg/kg of mefloquine hydrochloride. The clinically used monomeric water-soluble trioxane drug 2c and the synthetic trioxolane peroxide drug development candidate OZ277 (9) maleate are included as monotherapy reference compounds.

A short description of data set [2]: Thermal stability in the absence of solvent (1H NMR). The note with it: neat solid. In kind it is physicochemical. The text has this:
Referring now to Scheme 3, C-10 acetate 2d was converted into C-10-allyl derivative 7 and then, via hydroboration followed by oxidation, into monomeric trioxane carboxylic acid 8. Jung et al, 2003. Monomeric trioxane carboxylic acid 8 can be transformed in one step directly into a diverse library of monomeric trioxane amides. Jung et al, 2003. For example, one-step amidation of carboxylic acid 8 produced trioxane fluoroaryl amide 4a, a monomeric version of dimer fluoroaryl amide 3 (Scheme 3). In the same way, monomer trioxane fluoroanilide 4b was prepared directly and in good yield from carboxylic acid 8 (Scheme 3). The overall yield of 4b is approximately 48% from natural trioxane 1, and scale up to multigram or even kilogram amounts is expected to be straightforward. […]
Referring once again to Scheme 4, dihydroartemisinin acetate 2d, prepared from natural trioxane 1 in near quantitative yield, Posner et al., 2003, underwent tin-promoted dimerization, Posner et al., 2003, with bis-allylic silane 10, Bigot and Breit, 2008, to form pure C-10b, C10b-trioxane dimer alcohol 11 in 59% yield. […] Each of benzoate esters 12a-12c in the absence of solvent is thermally stable at the elevated temperature of 60° C. for at least 1 week and at 70° C. for at least 24 h, with less than 5% decomposition detected by ^1H NMR spectroscopy. […]

A short description of data set [3]: Overt toxicity and behavioral change in treated malaria-infected mice (fluoroaryl amide study). In kind it is in vivo. The note with it: malaria-infected animals cured by trioxane plus mefloquine hydrochloride. The procedure:
as §1, §2

For data set [4], the system named is Plasmodium berghei, ANKA strain. In words: Antimalarial efficacy of a single oral dose of trioxane (8 mg/kg) combined with mefloquine hydrochloride (24 mg/kg) in Plasmodium berghei-infected mice (Table 3). Type of data set: in vivo. The note with it: single oral dose 8 mg/kg trioxane + 24 mg/kg mefloquine hydrochloride; for Average Survival (days) After Infection: 3 mice, experiment stopped on day 57. The method, then: (§3) Each trioxane silylamide 14a, 14b, and 16 (0.90 mg) was dissolved in 0.11 mL of 7:3 Tween 80:ethanol and then diluted with 1.10 mL of water for oral administration to 5-week old C57BU6J male mice (from the Jackson Laboratory) weighing 18-19 grams that were infected intraperitoneally on day 0 with the Plasmodium berghei, ANKA strain (2×10^7 parasitized erythrocytes). Woodard et al., 2009. Each of 3 mice in a group was treated orally 24 hours post-infection with a single dose of 0.20 mL (0.20 mL/1.21 mL×0.9 mg=0.15 mg) of diluted compound solution, corresponding to a dose of 8 mg/kg, combined with 24 mg/kg of mefloquine hydrochloride. Determining blood parasitemia levels, as well as monitoring the duration of animal survival compared to survival time of animals receiving no drug, are both widely accepted as measures of a drug's efficacy in antimalarial drug development. […] Animals infected but receiving no drug died on an average of 15 days post-infection. A widely accepted yardstick of cure (i.e., 100% efficacy) is survival of animals to at least day 30 post-infection, with no detectable malaria parasites in the animal's blood at that time.

A short description of data set [5]: Overt toxicity, behavioral change and body weight in treated malaria-infected mice (silylamide study). Type of data set: in vivo. The note with it: malaria-infected animals cured by trioxane plus mefloquine hydrochloride. The procedure:
as §3

Data set [6] deals with Plasmodium berghei, ANKA malaria strain. In words: Antimalarial efficacy of a single oral dose (7.1 mg/kg) of trioxane combined with mefloquine hydrochloride (21 mg/kg) in Plasmodium berghei-infected mice (Table 2). In kind it is in vivo. Particulars: mefloquine hydrochloride alone, single oral dose 21 mg/kg; for % parasitemia on day 30%: average of 4 mice, hydrochloride, 21 mg/kg. The procedure:
Each trioxane dimer 12a-12c (0.90 mg) was dissolved in 0.11 mL of 7:3 Tween 80:ethanol and then diluted with 1.10 mL of distilled water for oral administration to 5-week-old C57BL/6J male mice (Jackson Laboratory) weighing about 21 g that were infected ip on day 0 with the Plasmodium berghei, ANKA malaria strain (2×10^7 parasitized erythrocytes) [Chen et al., 2006]. Each of five mice in a group was treated orally 24 h post-infection with a single dose of 0.20 mL (0.20 mL/1.21 mL×0.9 mg=0.15 mg) of diluted compound solution, corresponding to a dose of 7.1 mg/kg, combined with 21 mg/kg of mefloquine hydrochloride. Both determining blood parasitemia levels, as well as monitoring the duration of animal survival compared with survival time of infected animals receiving no drug, are widely accepted measures of drug efficacy in antimalarial drug development. […] The average survival time of the animals receiving no drug was 15.8 days post-infection. […] Widely accepted indications of complete cure (i.e. 100% efficacy) are survival of animals to day 30 post-infection with no detectable malaria parasites in the animal's blood at that time.

Data set [7] has as its system Plasmodium berghei, ANKA strain. The experiment in a line: Antimalarial efficacy of a single oral dose of trioxane (8 mg/kg) combined with mefloquine hydrochloride (24 mg/kg) in Plasmodium berghei-infected mice (Table 3). Type of data set: in vivo. The note with it: mefloquine hydrochloride alone, single oral dose 22 mg/kg.
Data set [8] relates to P388 leukemia. Particulars: NCI Report on NSC 369397, 25 Oct. 1983; cited from earlier work.
Data set [9] has as its system 60 cancer cell lines (leukemia, non-small-cell lung, colon, CNS, melanoma, ovarian, renal, prostate, breast). The note with it: cited from earlier work.
The mark [10] stands for this setting: single oral dose 6.8 mg/kg trioxane + 20 mg/kg mefloquine hydrochloride.
Where [11] appears, read: single oral dose 13 mg/kg trioxane + 13 mg/kg mefloquine hydrochloride.
[12] abbreviates: mefloquine hydrochloride alone, single oral dose 20 mg/kg.

This is an account of results in US8884032B2, “Trioxane monomers and dimers” (The Johns Hopkins University, priority 2009, dated 2014).

Molecules are shown by their SMILES. Where “and” joins values, the source holds several entries; their conditions need not be identical. Equal values may be shown once. Marks after values point to notes of the source that are not given here.

As for `C[C@H]1[C@@H](CCC(=O)Nc2ccc(F)cc2)O[C@@H]2O[C@]3(C)CC[C@H]4[C@H](C)CC[C@@H]1[C@@]24OO3` [4b, Trioxane Monomer Fluoroanilide], the “blood parasitemia of the one mouse not cured, day 30” value in [1] (6.8 mg/kg trioxane + 20 mg/kg mefloquine hydrochloride) is 4%; in [1] (13 mg/kg trioxane + 13 mg/kg mefloquine hydrochloride) it was 2%. Also, the “mice completely cured (no parasites in their blood) on day 30 post-infection” value in [1] (6.8 mg/kg trioxane + 20 mg/kg mefloquine hydrochloride, five mice) stood at 80%. Further, the “mice cured (day 30)” value in data set [1] (13 mg/kg trioxane + 13 mg/kg mefloquine hydrochloride, five mice) is given as “four”. Moreover, the “% Suppression of Parasitemia (on day 3 post-infection)” value (shortened to “% Suppression of Parasitemia”) is 99.0% in [1] (monotherapy, single oral dose 72 mg/kg trioxane, no mefloquine); 99.0% in data set [1] (setting [10]); 99.6% in data set [1] (setting [11]). In addition, the “Average Survival (days) After Infection” value in data set [1] (monotherapy, single oral dose 72 mg/kg trioxane, no mefloquine, 72 mg/kg) was 24.4 days and 24.4 (21, 23, days; in data set [1] (setting [11]), 30 days. Further, the “extended survival time after reinfection, longer than average survival of a newly infected control group” value in [1] (reinfection of the four cured mice on day 32 after the original infection) is “approximately four”. Besides, the “stable in the absence of solvent at 60° C.” value in [2] (60° C.) was “at least 7 days”. Further, in [2] (70° C.), the “stable in the absence of solvent at 70° C.” value is recorded as “at least 1 day”. For the same compound, the “overt toxicity or behavioral change attributable to trioxane drug administration” value in data set [3] is given as “Neither overt toxicity nor behavioral change”.

As for `C[C@H]1[C@@H](CCC(=O)NC[Si](C)(C)C)O[C@@H]2O[C@]3(C)CC[C@H]4[C@H](C)CC[C@@H]1[C@@]24OO3` [14a], in data set [4], the “% Suppression of Parasitemia” value is over 99.5%, the “parasites in the blood of the surviving mice on day 57” value (“parasites in the blood” for short) is listed as “no parasites were detected” and the “Average Survival (days) After Infection” value is over 57 days. Also, the “overt toxicity or behavioral change attributable to trioxane drug administration” value in data set [5] is recorded as “Neither overt toxicity nor behavioral change”.

Regarding `C[C@H]1[C@@H](CCC(=O)NCCC[Si](C)(C)C)O[C@@H]2O[C@]3(C)CC[C@H]4[C@H](C)CC[C@@H]1[C@@]24OO3` [14b], in [4], the “% Suppression of Parasitemia” value is over 99.5%, the “parasites in the blood” value is recorded as “^aOne mouse died on day 17; the other two mice in this group showed no parasitemia on day 57” and the “Average Survival (days) After Infection” value is 44^a days.

Consider `Cl.OC(c1cc(C(F)(F)F)nc2c(C(F)(F)F)cccc12)C1CCCCN1` (stereo not shown) [Mefloquine, mefloquine hydrochloride, reference compound], for which, in data set [1] (setting [12]), the “% Suppression of Parasitemia” value stood at 99.6% and the “Average Survival (days) After Infection” value was determined as 17.6 days. Besides, in data set [6], the “No. of mice parasite free (day 30)” value is on record as 1, the “suppression of parasitemia (day 3)” value was 91.5% and the “% parasitemia on day 30%” value was 25 (4 mice) %. Further, the “% parasitemia on day 30%” value in [6] (listed as mefloquine hydrochloride) was 25%. For the same compound, the “cure of malaria-infected mice” value in data set [7] is “not curative”.

Turning to `C[C@@H]1CC[C@H]2[C@@H](C)C(=O)O[C@@H]3O[C@@]4(C)CC[C@@H]1[C@]32OO4` [artemisinin], the “activity against P388 leukemia” value in data set [8] was “inactive”. The “anticancer activity in 60 cell line panel” value in [9] is given as “modest anticancer activity”.

Regarding `C[C@H]1[C@@H](CC(C[C@H]2O[C@@H]3O[C@]4(C)CC[C@H]5[C@H](C)CC[C@@H]([C@H]2C)[C@@]35OO4)C(=O)NCc2ccc(F)cc2)O[C@@H]2O[C@]3(C)CC[C@H]4[C@H](C)CC[C@@H]1[C@@]24OO3` (stereo partly shown) [compound 3, Trioxane Dimer Fluoroaryl Amide], the “% Suppression of Parasitemia” value worked out at 99.5% in [1] (setting [10]) and 99.9% in [1] (setting [11]). In addition, the “Average Survival (days) After Infection” value in data set [1] (single oral dose 6.8 mg/kg trioxane + 20 mg/kg mefloquine hydrochloride, 24 h post-infection, C57BL/6J mice) is on record as 27.4 (22, 25, days; in data set [1] (setting [11]), 24.6 (17, 21, days.

Consider `C[C@H]1[C@@H](CC(C[C@H]2O[C@@H]3O[C@]4(C)CC[C@H]5[C@H](C)CC[C@@H]([C@H]2C)[C@@]35OO4)C(=O)NC[Si](C)(C)C)O[C@@H]2O[C@]3(C)CC[C@H]4[C@H](C)CC[C@@H]1[C@@]24OO3` (stereo partly shown) [compound 16], for which, in data set [4], the “% Suppression of Parasitemia” value is over 99.5%, the “parasites in the blood” value is “no parasites were detected” and the “Average Survival (days) After Infection” value is recorded as over 57 days. The “overt toxicity or behavioral change attributable to trioxane drug administration” value in data set [5] was “Neither overt toxicity nor behavioral change”.
